In US20170096492A1, “DOSAGE AND ADMINISTRATION OF ANTI-IGF-1R, ANTI-ErbB3 BISPECIFIC ANTIBODIES, USES THEREOF AND METHODS OF TREATMENT [sequence]” (Merrimack Pharmaceuticals, Inc., priority 2014, published 2017):
“Also recorded” adds a separate entry of the source.

What was measured:
[1] = system: hepatocellular carcinoma tumor biopsies; assay: Immunohistochemistry of pre- and post-treatment tumor biopsies (cohort 4D); assay type: in vivo, human; conditions: post- vs pre-treatment, MM-141 20 mg/kg weekly, sorafenib-refractory HCC
Text: Formalin fixed, paraffin embedded biopsy samples were sectioned at 5 μm, processed and stained for IGF-1R (G11 clone detection antibody, Ventana) and ErbB3 (clone D22 antibody, Cell Signaling Technology).

[2] = system: BxPC-3 derived xenograft tumors; assay: BxPC-3 xenograft PD, western blot; assay type: in vivo, mice; conditions: MM-141 30 mpk i.p. Day 0, 3, 6 co-administered with gemcitabine 150 mpk
Text: For the PD studies described in FIGS. 6A-B and FIGS. 9 A-B, nu/nu female mice were inoculated with 8×10^6 DU145 or 5×10^6 BxPC-3 cells, respectively, in 1:1 Matrigel® suspension. […] Tumor lysates were generated and subjected to western blot analysis.

[3] = system: BxPC-3 cell line xenografts; assay: BxPC-3 xenograft efficacy study; assay type: in vivo, mice
Procedure: For the efficacy studies (FIGS. 6C and 9C), nu/nu female mice were inoculated with 8×10^6 DU145 cells and 5×10^6 BxPC-3 cells, respectively. […] Tumor volume was measured weekly as described in Example 4.

[4] = system: HepG2 hepatocellular carcinoma cells; assay: HepG2 western blot, sorafenib with or without MM-141; assay type: cell-based; conditions: MM-141 500 nM added to sorafenib 5 μM, 2 hours
Procedure: HepG2 cells were plated on 12 well dishes (3×10^5 cells per well) in 10% serum-containing media and incubated overnight. […] Following treatment, cells were harvested in lysis buffer containing protease and phosphatase inhibitors and analyzed by western blotting.

[5] = system: BxPC-3 (KRas wild-type) pancreatic cancer cells; assay: pAKT western blot, GSK-1120212 and MM-141; assay type: cell-based, human; conditions: 24 h
Procedure: Following treatment, cells were harvested in cell lysis buffer and western blotting was performed and quantified for pAKT (Serine 473).

[6] = system: BxPC-3 cells; assay: Cellular proliferation assay in low serum with or without IGF-1 or HRG; assay type: cell-based, human; conditions: for inhibition of cell growth: low (2%) serum
[7] = system: ovarian cancer cells; assay: Ovarian cancer cell western blot, AKT and ERK signaling; assay type: cell-based; conditions: MM-141 1 μM 1 hour, then IGF-1 50 nM or HRG 10 nM 10 minutes
Procedure: In FIGS. 18A-F, Peol, Peo4, Ov90, PEA1, PEA2 and OvCAR8 ovarian cancer cells were plated on 10 cm plates (1-3×10^6 cells per plate) in 10% serum-containing medium and incubated overnight. […] Following treatment, cells were harvested in lysis buffer containing protease and phosphatase inhibitors and analyzed by western blotting. Phosphorylated and total levels of IGF-1R, ErbB3, AKT and ERK were determined using target-specific antibodies.

[8] = system: panel of pancreatic cancer cell lines; assay: pAKT ELISA after HRG and IGF-1 stimulation; assay type: cell-based, human; conditions: MM-141 500 nM 24 hours, HRG and IGF-1 100 ng/mL 15 minutes, ten cell lines
Procedure: Ten pancreatic cancer cell lines (see Table 3 above) were seeded at 65% confluence in 10% serum-containing medium and incubated in 96-well plates overnight. […] Following incubation, cells were treated with a combination of HRG and IGF-1 ligands at 100 ng/mL or PBS (control) for 15 minutes. After treatment, cells were harvested and protein lysates generated. Changes in pAKT levels across all treatments and cell lines were evaluated by pAKT ELISA. Phosphorylated AKT signal from untreated control was subtracted from each treatment, and then pAKT levels post-treatment with HRG and IGF-1 were normalized to 1 for each cell line.

[9] = system: IGF-1R and ErbB3 receptors; assay: Receptor expression ELISA versus monospecific antibodies (Example 31); assay type: cell-based; conditions: 50 nM, four hours post-treatment, compared with monospecific antibodies
Procedure: Cell lysates were harvested four hours post-treatment with antibodies as indicated in FIGS. 33A and 33B (50 nM of each antibody) and changes in receptor expression were measured by ELISA. All ELISA measurements are normalized to vehicle (PBS) treatment, and these measurements are expressed relative to a vehicle treated control value of 1.

[10] = system: CFPAC-1 pancreatic cancer cells; assay: pAKT (Ser473) ELISA after chemotherapy and ligand stimulation; assay type: cell-based, human; conditions: 24 hours
Procedure: (§1) CFPAC-1 pancreatic cancer cells were seeded at 65% confluence in 10% serum-containing medium on 96-well plates overnight. […] Following incubation, cells were treated with (FIG. 24A) HRG (5 nM) or (FIG. 24B) IGF-1 (50 nM) for 15 minutes, where indicated. After treatment, cells were harvested and protein lysates generated. Changes in pAKT (Ser473) levels across all treatments were evaluated by pAKT ELISA, respectively. FIGS. 24(A-B) are bar graphs showing pAKT levels relative to ligand alone stimulated signals, which were normalized to 1.
as §1, with “25A)” for “24A)”, “25B)” for “24B)”, “25(A-B)” for “24(A-B)”

decrease of ErbB3 expression level [9]: to a greater extent | decrease of IGF-1R expression level [9]: to a greater extent
Substance: MM-141: polyvalent bispecific antibody P4-G1-M1.3, anti-IGF-1R and anti-ErbB3; heavy chain SEQ ID NO: 3, light chain SEQ ID NO: 4
ErbB3 level in tumor biopsy [1]: decreased; also recorded: Down-regulation | IGF-1R level in tumor biopsy [1]: decreased; also recorded: Down-regulation | gemcitabine-induced receptor (IGF-1R, ErbB3) up-regulation [2]: reversed the receptor up-regulation | tumor growth after development of resistance to gemcitabine ([3]; MM-141 30 mpk i.p. q3d added to the gemcitabine regimen on day 41): decreased tumor growth | activity of gemcitabine in the combination arm ([3]; MM-141 30 mpk i.p. q3d co-administered with gemcitabine 150 mpk i.p. q6d): increased the activity of gemcitabine | therapeutic synergy with gemcitabine ([3]; MM-141 30 mpk i.p. q3d with gemcitabine 150 mpk i.p. q6d): therapeutic synergy | sorafenib-induced up-regulation of ErbB3 and pAKT [4]: overcome | pAKT upregulation induced by the MEK inhibitor ([5]; MM-141 1000 nM with GSK-1120212 250 nM): decreases the pAKT upregulation | pAKT (Serine 473) level ([5]; single agent, GSK-1120212 250 nM or MM-141 1000 nM): down-regulates the basal level of pAKT | inhibition of cell growth, greater than in the absence of ligand ([6]; in presence of HRG): approximately 50% | inhibition of cell growth ([6]; IGF-1 added to the media): maximal activity | inhibition of cell growth ([6]; absence of exogenous ligand): unable to inhibit cell growth | IGF-1 and/or HRG induced upregulation in AKT and ERK survival signaling [7]: could be abrogated | pAKT (AKT activation) induced by the combination of HRG and IGF-1 [8]: blocks AKT activation; also recorded: greatly reduced amount of pAKT | gemcitabine-induced increased sensitivity to HRG and IGF-1, pAKT (Ser473) ([10]; MM-141 500 nM with gemcitabine 1 μM): this effect is blocked | paclitaxel-induced increased sensitivity to IGF-1, pAKT (Ser473) ([10]; MM-141 500 nM with paclitaxel 100 nM): this effect is blocked
